Test results from PubChem BioAssay (NCI).
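96-well plates; 48 h exposure; 5 concentrations. Endpoints by linear interpolation between flanking doses. Not reached: highest tested concentration assigned. Abbreviation: GI50, concentration required for 50% inhibition of growth. Definition used: TGI = concentration required for complete inhibition of growth.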

Assays:
Assay in all cases: DTP human tumour cell line panel, 48 h
SF-295 CNS = test system: SF-295 CNS
K-562 leukemia = test system: K-562 leukemia
SF-268 CNS = test system: SF-268 CNS
RPMI-8226 leukemia = test system: RPMI-8226 leukemia
OVCAR-3 ovarian = test system: OVCAR-3 ovarian
HL-60(TB) leukemia = test system: HL-60(TB) leukemia
KM12 colon = test system: KM12 colon
OVCAR-8 ovarian = test system: OVCAR-8 ovarian
NCI-H226 lung = test system: NCI-H226 lung
MDA-MB-435 = test system: MDA-MB-435

CC(=O)O[C@H]1CC[C@@]2(C)C(=CC[C@H]3C(CC#N)[C@@](C)(C#N)CCC32)C1 (some centres not stated)
TGI (SF-295 CNS): > 100 µM
TGI (K-562 leukemia): > 100 µM
TGI (SF-268 CNS): > 100 µM
TGI (RPMI-8226 leukemia): > 100 µM
TGI (OVCAR-3 ovarian): > 100 µM
TGI (HL-60(TB) leukemia): > 100 µM
TGI (KM12 colon): > 100 µM
TGI (OVCAR-8 ovarian): > 100 µM
TGI (NCI-H226 lung): > 100 µM

CCOC(=O)NC(=O)c1cn(C2CCCCC2)c(=O)n(C)c1=O
TGI (SF-295 CNS): > 100 µM
TGI (K-562 leukemia): > 100 µM
TGI (SF-268 CNS): > 100 µM
TGI (RPMI-8226 leukemia): > 100 µM
TGI (OVCAR-3 ovarian): > 100 µM
TGI (HL-60(TB) leukemia): > 100 µM
TGI (KM12 colon): > 100 µM
TGI (OVCAR-8 ovarian): > 100 µM
TGI (NCI-H226 lung): > 100 µM

CC(=O)OC1CC2C(C)(C)C(=O)C=C[C@]2(C)C2CCC3(C)C(c4ccoc4)C(=O)C4OC43[C@]12C (some centres not stated)
TGI (SF-295 CNS): 37.7 µM
TGI (K-562 leukemia): 32.6 µM
TGI (SF-268 CNS): 53.9 µM
TGI (RPMI-8226 leukemia): 22.5 µM
TGI (OVCAR-3 ovarian): 34.4 µM
TGI (HL-60(TB) leukemia): 29.9 µM
TGI (KM12 colon): 29.3 µM
TGI (OVCAR-8 ovarian): 64.4 µM
TGI (NCI-H226 lung): 32.7 µM

COC(=O)CCCCCOS(=O)(=O)c1ccc(C)cc1
TGI (SF-295 CNS): > 100 µM
TGI (K-562 leukemia): > 100 µM
TGI (SF-268 CNS): > 100 µM
TGI (OVCAR-3 ovarian): > 100 µM
TGI (HL-60(TB) leukemia): > 100 µM
TGI (KM12 colon): > 100 µM
TGI (OVCAR-8 ovarian): > 100 µM

Nc1ccc(C(=O)CC2(O)C(=O)Nc3ccccc32)cc1 (configuration not stated)
TGI (SF-295 CNS): > 100 µM
TGI (K-562 leukemia): > 100 µM
TGI (SF-268 CNS): > 100 µM
TGI (RPMI-8226 leukemia): > 100 µM
TGI (OVCAR-3 ovarian): > 100 µM
TGI (HL-60(TB) leukemia): > 100 µM
TGI (OVCAR-8 ovarian): > 100 µM
TGI (NCI-H226 lung): > 100 µM

COc1cccc(/C=C2\N=C(Cl)OC2=O)c1O
TGI (SF-295 CNS): > 100 µM
TGI (K-562 leukemia): > 100 µM
TGI (SF-268 CNS): > 100 µM
TGI (RPMI-8226 leukemia): > 100 µM
TGI (OVCAR-3 ovarian): > 100 µM
TGI (HL-60(TB) leukemia): > 100 µM
TGI (KM12 colon): > 100 µM
TGI (OVCAR-8 ovarian): > 100 µM
TGI (NCI-H226 lung): > 100 µM

Cc1cccc2c(=O)c3c(sc12)c(NCCCN)nc1ccccc13
GI50 (SF-295 CNS): 1.75 µM
TGI (SF-295 CNS): 3.29 µM
GI50 (SF-268 CNS): 1.53 µM
TGI (SF-268 CNS): 3.17 µM
GI50 (MDA-MB-435): 1.69 µM
TGI (MDA-MB-435): 3.17 µM
GI50 (RPMI-8226 leukemia): 1.77 µM
TGI (RPMI-8226 leukemia): 3.88 µM
GI50 (OVCAR-3 ovarian): 1.68 µM
TGI (OVCAR-3 ovarian): 3.16 µM
GI50 (HL-60(TB) leukemia): 1.71 µM
TGI (HL-60(TB) leukemia): 3.34 µM
GI50 (KM12 colon): 1.65 µM
TGI (KM12 colon): 3.21 µM

CC1CCCc2c1n[nH]c2CC1CC(=O)NC(=O)C1 (configuration not stated)
TGI (SF-295 CNS): > 100 µM
TGI (K-562 leukemia): > 100 µM
TGI (SF-268 CNS): > 100 µM
TGI (RPMI-8226 leukemia): > 100 µM
TGI (OVCAR-3 ovarian): > 100 µM
TGI (HL-60(TB) leukemia): > 100 µM
TGI (KM12 colon): > 100 µM
TGI (OVCAR-8 ovarian): > 100 µM
TGI (NCI-H226 lung): > 100 µM

CCCC[C@H](CCc1ccccc1)N(C(=O)OC)N1CCC[C@H]1COC
TGI (SF-295 CNS): 33.5 µM
TGI (K-562 leukemia): 61.2 µM
TGI (SF-268 CNS): 43 µM
TGI (RPMI-8226 leukemia): > 100 µM
TGI (OVCAR-3 ovarian): 32.3 µM
TGI (HL-60(TB) leukemia): > 100 µM
TGI (KM12 colon): 35.9 µM
TGI (OVCAR-8 ovarian): 71.5 µM
TGI (NCI-H226 lung): 36.2 µM

NC1=C(O)/C(=N/NS(=O)(=O)c2ccccc2)C(c2ccc3c(c2)OCO3)O1 (configuration not stated)
TGI (SF-295 CNS): > 100 µM
TGI (K-562 leukemia): > 100 µM
TGI (SF-268 CNS): > 100 µM
TGI (RPMI-8226 leukemia): > 100 µM
TGI (OVCAR-3 ovarian): > 100 µM
TGI (HL-60(TB) leukemia): > 100 µM
TGI (KM12 colon): > 100 µM
TGI (OVCAR-8 ovarian): > 100 µM
TGI (NCI-H226 lung): > 100 µM

O=[N+]([O-])c1cc(I)cc(/C=N/NS(=O)(=O)c2ccc(F)cc2)c1O
TGI (SF-295 CNS): 98.2 µM
TGI (K-562 leukemia): 52.7 µM
TGI (SF-268 CNS): 61.5 µM
TGI (RPMI-8226 leukemia): 54.8 µM
TGI (OVCAR-3 ovarian): 38.6 µM
TGI (HL-60(TB) leukemia): 54.4 µM
TGI (KM12 colon): 61.9 µM
TGI (OVCAR-8 ovarian): 55.3 µM

C[N+]1(CCNP(=S)(NCC[N+]2(C)Cc3c(ccc4c3OCO4)C3C2c2cc4c(cc2C[C@@H]3O)OCO4)NCC[N+]2(C)Cc3c(ccc4c3OCO4)C3C2c2cc4c(cc2C[C@@H]3O)OCO4)Cc2c(ccc3c2OCO3)C2C1c1cc3c(cc1C[C@H]2O)OCO3 (some centres not stated)
GI50 (SF-295 CNS): 1.43 µM
GI50 (K-562 leukemia): 2.32 µM
GI50 (SF-268 CNS): 6.67 µM
TGI (RPMI-8226 leukemia): < 0.00191 µM
GI50 (OVCAR-3 ovarian): 1.68 µM
GI50 (HL-60(TB) leukemia): 1.02 µM
GI50 (KM12 colon): 1.78 µM
TGI (OVCAR-8 ovarian): < 0.00191 µM
TGI (NCI-H226 lung): 79.6 µM

Cn1c(=O)nc2n(-c3ccc(F)c(F)c3)c3ccccc3nc-2c1=O
TGI (SF-295 CNS): 32.4 µM
TGI (K-562 leukemia): 41.2 µM
TGI (SF-268 CNS): > 100 µM
TGI (RPMI-8226 leukemia): 72.2 µM
TGI (OVCAR-3 ovarian): 10.3 µM
TGI (HL-60(TB) leukemia): 34.9 µM
TGI (KM12 colon): > 100 µM
TGI (OVCAR-8 ovarian): 68.1 µM
TGI (NCI-H226 lung): > 100 µM

CC1=NC(C)=C(/C(C)=N/NC(=O)c2ccccc2O)C(C)/C1=C(/C)NNC(=O)c1ccccc1O (configuration not stated)
TGI (K-562 leukemia): 35.3 µM
TGI (SF-268 CNS): > 100 µM
TGI (OVCAR-3 ovarian): 66.7 µM
TGI (HL-60(TB) leukemia): 22.4 µM
TGI (KM12 colon): > 100 µM
TGI (OVCAR-8 ovarian): 50.5 µM

CCCCCCCCCCNC(=S)OC
TGI (SF-295 CNS): > 100 µM
TGI (K-562 leukemia): > 100 µM
TGI (SF-268 CNS): > 100 µM
TGI (RPMI-8226 leukemia): 36.7 µM
TGI (HL-60(TB) leukemia): 44.8 µM
TGI (OVCAR-8 ovarian): > 100 µM

CSc1nc2c(nc(N)n2C2OC(CO)C(O)C(O)C2O)c(=O)[nH]1 (configuration not stated)
TGI (SF-295 CNS): > 100 µM
TGI (K-562 leukemia): > 100 µM
TGI (SF-268 CNS): > 100 µM
TGI (OVCAR-3 ovarian): > 100 µM
TGI (HL-60(TB) leukemia): > 100 µM
TGI (KM12 colon): > 100 µM
TGI (OVCAR-8 ovarian): > 100 µM
TGI (NCI-H226 lung): > 100 µM

Clc1ccc(-c2nnc(-c3nn(-c4ccccc4)c4nc5ccccc5nc34)o2)cc1
TGI (SF-295 CNS): > 100 µM
TGI (K-562 leukemia): > 100 µM
TGI (SF-268 CNS): > 100 µM
TGI (RPMI-8226 leukemia): > 100 µM
TGI (OVCAR-3 ovarian): > 100 µM
TGI (HL-60(TB) leukemia): 80.5 µM
TGI (KM12 colon): > 100 µM
TGI (OVCAR-8 ovarian): > 100 µM
TGI (NCI-H226 lung): > 100 µM

Cn1nc(-c2ccccc2)c2c(/C=C/c3ccc(F)cc3)onc2c1=O
TGI (K-562 leukemia): > 100 µM
TGI (SF-268 CNS): > 100 µM
TGI (RPMI-8226 leukemia): > 100 µM
TGI (HL-60(TB) leukemia): > 100 µM
TGI (OVCAR-8 ovarian): > 100 µM
